Test results reported in patent publication US10934326B2, “Peripheral modifications on pocket-redesigned vancomycin analogs synergistically improve antimicrobial potency and durability” (priority 2016, dated 2021).
Converted amounts (≈) assume the structure as drawn. “Also recorded” adds a separate entry of the source. Read-outs that look alike come from different tables or passages of the source.

Columns and labels:
[1] = test system: VanA VRE (E. faecalis BM 4166 and E. faecium ATCC BAA-2317); assay: Cell wall biosynthesis inhibition assay (accumulation of UDPMurNAc-pp 19); assay type: cell-based, Enterococcus faecalis; Enterococcus faecium; settings: 35 μg/mL, tetracycline pretreated VanA VRE, 30 minutes, 37° C.
From the text: The inhibition of bacterial cell wall synthesis was established in an assay that quantitates the accumulation of the peptidoglycan precursor UDP-N-acetyl-muramyl-depsipentapeptide (Compound 19, UDPMurNAc-pp), resulting from inhibited cell wall incorporation following antibiotic treatment. […] This procedure was reduced in scale and modified to enlist reverse-phase HPLC separation, UV detection, and calibration curve determination of the amount of isolated 19, permitting use with limited sample sizes. A larger scale isolation and full characterization of 19 provided the material needed to establish a linear calibration curve.
The bacterial suspension was heated at 100° C. for 15 minutes to release cytosolic 19. The entire supernatant was analyzed by semi-preparative reverse-phase HPLC with a single injection and the amount of 19 was quantitated with use of the calibration curve.
Cultures of vancomycin-resistant Enterococcus faecalis (VanA VRE, BM4166) and Enterococcus faecium (VanA VRE, ATCC BAA-2317) were inoculated and grown in an orbital shaker at 37° C. in 100% brain-heart infusion broth for 12 hours. The above bacterial solution was subjected to a subculture to obtain fresh mid-log phase bacterial cells (total volume of bacterial suspension=5 mL, incubation time=6 hours, OD600=0.6). […] Vancomycin analogues were added and the mixture was incubated at 37° C. for a further 30 minutes.
After the bacteria were harvested (3000 rpm, 4° C., 20 minutes), this bacterial precipitate was washed and resuspended in 5 mM glucose and 5 mM HEPES buffer (500 μL, 1:1, pH=7.2). This bacterial suspension was heated at 100° C. for 15 minutes and centrifuged (13000 rpm, 25° C., 10 minutes). […] [*****Allen et al., Antimicrob. Agents Chemother. 1996, 40(10):2356-2362]; Liu et al., J. Am. Chem. Soc. 2001, 123:9916-9917.] The amount of UDP Mur N-Ac pentapeptide (19) was quantified by use of calibration curves for E. faecalis BM4166, and for E. faecium ATCC BAA-2317 based on the area under the curve (AUC).

[2] = test system: vancomycin-sensitive Staphylococcus aureus (VSSA strain ATCC 25923); settings: previously reported data; cited from earlier work
[3] = test system: methicillin and oxacillin-resistant Staphylococcus aureus subsp. aureus (MRSA strain ATCC 43300); settings: previously reported data; cited from earlier work
[4] = test system: vancomycin-resistant Enterococcus faecalis (VanA VRE, BM4166); settings: BM 4166; previously reported data; cited from earlier work
[5] = test system: Enterococcus faecium (VanA VRE, ATCC BAA-2317); settings: previously reported data; cited from earlier work
[6] = test system: vancomycin-resistant Enterococcus faecalis (VanB VRE, strain ATCC 51299); settings: previously reported data; cited from earlier work
[7] = test system: vancomycin-resistant Enterococcus faecalis (VanA VRE, BM4166); assay: In vitro antimicrobial assay (MIC), VanA E. faecalis; assay type: cell-based
From the text: (§1) One day before a study was run, fresh cultures of vancomycin-sensitive Staphylococcus aureus (VSSA strain ATCC 25923), methicillin and oxacillin-resistant Staphylococcus aureus subsp. aureus (MRSA strain ATCC 43300), vancomycin-resistant Enterococcus faecalis (VanA VRE, BM4166), Enterococcus faecium (VanA VRE, ATCC BAA-2317), vancomycin-resistant Enterococcus faecalis (VanB VRE, strain ATCC 51299), Escherichia coli (ATCC 25922), Acinetobacter baumannii (ATCC BAA-1710), Pseudomonas aeruginosa (ATCC 15442), Klebsiella pneumoniae (ATCC 700603) were inoculated and grown in an orbital shaker at 37° C. in 100% Mueller-Hinton broth (VSSA, MRSA and VanB VRE), 100% brain-heart infusion broth (VanA VRE, A. baumannii and K. pneumoniae) or 100% Luria broth (E. coli and P. aeruginosa). After 24 hours, the bacterial stock solutions were serially diluted with the culture medium (10% Mueller-Hinton broth for VSSA, MRSA and VanB VRE or 10% brain-heart infusion broth for VanA VRE A. baumannii and K. pneumoniae or 10% Luria Broth for E. coli and P. aeruginosa) to achieve a turbidity equivalent to a 1:100 dilution of a 0.5 M McFarland solution. This diluted bacterial stock solution was then inoculated in a 96-well V-shaped glass coated microtiter plate, supplemented with serial diluted aliquots of the antibiotic solution in DMSO (4 μL), to achieve a total assay volume of 0.1 mL. The plate was then incubated at 37° C. for 18 hours, after which minimal inhibitory concentrations (MICs) were determined by monitoring the cell growth (observed as a pellet) in the wells.
(§2) The lowest concentration of antibiotic (in μg/mL) capable of eliminating cell growth in the wells is the reported MIC value. The reported MIC values for the vancomycin analogues were determined against vancomycin as a standard in the first well.*
(§3) [*Clinical and Laboratory Standards Institute. Methods for Dilution Antimicrobial Susceptibility Tests for Bacteria That Grow Aerobically; Approved Standard, 7th ed.; CLSI document M07-A8; Clinical and Laboratory Standards Institute: Wayne, Pa., 2009.]

[8] = test system: Enterococcus faecium (VanA VRE, ATCC BAA-2317); assay: In vitro antimicrobial assay (MIC), VanA E. faecium; assay type: cell-based; settings: for antibiotic susceptibility profile of the strain: VanA E. faecium ATCC BAA-2317
From the text: as §1, §2, §3

[9] = test system: VanA VRE (E. faecalis BM 4166 and E. faecium ATCC BAA-2317); assay: Antimicrobial activity against VanA VRE (both strains); assay type: cell-based, Enterococcus faecalis; Enterococcus faecium
From the text: as §1, §2

[10] = test system: VanA VRE (E. faecalis BM 4166 and E. faecium ATCC BAA-2317); assay: Cell wall permeability assay (propidium iodide uptake); assay type: cell-based, Enterococcus faecalis; Enterococcus faecium; settings: 10 μM compound
From the text: The effect of the compounds on cell membrane permeability was examined by measuring cytoplasmic membrane uptake of the fluorescent probe propidium iodide in the same VanA vancomycin-resistant E. faecalis (BM 4166) and E. faecium (ATCC BAA-2317) strains. This fluorescent probe only enters cells with permeabilized cell membranes and is detected by the emission of fluorescence upon intracellular nucleic acid binding [Boulos et al., J Microbiol Methods 1999, 37(1):77-86].
Fresh, mid-log phase VanA VRE in pH 7.2 buffer at 25° C. were preincubated with propidium iodide (10 μM) for 5 minutes before the test compounds were added, monitoring the fluorescence emission at 617 nm (excitation at 535 nm) over time, both pre (5 minutes) and post (15 minutes) compound addition. Rapid and sustained increases in fluorescence intensity are observed immediately upon addition of test compounds that induce bacterial cell membrane permeability.
One day before a study was run, cultures of vancomycin-resistant Enterococcus faecalis (VanA VRE, BM4166) and Enterococcus faecium (VanA VRE, ATCC BAA-2317), were inoculated and grown in an orbital shaker at 37° C. in 100% brain-heart infusion broth for 12 hours. The above bacterial solution was subjected to a subculture to obtain fresh mid-log phase bacterial cells (total volume of bacterial suspension=7 mL, incubation time=6 hours, OD600=0.6). After the cultured bacteria were harvested (3000 rpm, 4° C., 20 minutes), the white bacterial precipitate was washed and resuspended in 5 mM glucose and 5 mM HEPES buffer (1:1, 500 μL, pH=7.2).
This bacterial suspension (130 μL) was charged into a 96-well black plate with a clear bottom (Corning 3650). The propidium iodide dye (10 μL, 150 μM DMSO solution) was added to the above suspension and the fluorescence was monitored at 25° C. for 5 minutes at 30 second intervals using a microplate reader (Molecular Devices®, Max Gemini EX) at an excitation wavelength of 535 nm and an emission wavelength of 617 nm. The test compound (150 μM, 10 μL) was added to the cell suspension and the fluorescence was monitored at 25° C. for an additional 15 minutes.

[11] = test system: VanA VRE (E. faecalis BM4166 and E. faecium ATCC BAA-2317); assay: Resistance development study (serial passaging at 0.5×MIC); assay type: cell-based, Enterococcus faecalis; Enterococcus faecium; settings: 0.5×MIC serial exposure, MICs monitored daily
Method: However, an additional and even more important feature of the expression of multiple independent mechanisms of action is a mechanism's impact on the rate at which bacterial resistance may emerge.
The MICs of the vancomycin analogues against vancomycin-resistant Enterococcus faecalis (VanA VRE, BM4166) and Enterococcus faecium (VanA VRE, ATCC BAA-2317) were determined. […] A new MIC assay was performed with the same protocol. This process was repeated for 50 passages, and the fold increase in MIC was determined at each passage. [****Pollard et al., J. Antimicrob. Chemother. 2012, 67:2665-2672.]

Compound | inhibition of bacterial cell wall synthesis (accumulation of 19) [1] | Antimicrobial Activity, MIC, sensitive S. aureus [2] [µg/mL] | Antimicrobial Activity, MIC, MRSA S. aureus [3] [µg/mL] | Antimicrobial Activity, MIC, VanA E. faecalis [4] [µg/mL] | Antimicrobial Activity, MIC, VanA E. faecium [5] [µg/mL] | Antimicrobial Activity, MIC, VanB E. faecalis [6] [µg/mL] | antibiotic susceptibility profile of the strain [8] | emergence of resistance on serial passaging [11] | also measured
CN[C@H](CC(C)C)C(=O)N[C@H]1C(=O)N[C@@H](CC(N)=O)C(=O)N[C@H]2C(=S)N[C@@H]3C(=O)N[C@H](C(=O)N[C@H](C(=O)O)c4cc(O)cc(O)c4-c4cc3ccc4O)[C@H](O)c3ccc(c(Cl)c3)Oc3cc2cc(c3OC2OC(CO)C(O)[C@H](O)[C@@H]2O[C@H]2CC(C)(N)[C@H](O)[C@H](C)O2)Oc2ccc(cc2Cl)[C@H]1O (some centres unmarked) [Compound 2] | do not effectively inhibit bacterial cell wall synthesis | >32 | >32 | >32 | >32 | >32 |  |  | 
CNC(CC(C)C)C(=O)NC1C(=O)NC(CC(N)=O)C(=O)NC2CNC3C(=O)NC(C(=O)NC(C(=O)O)c4cc(O)cc(O)c4-c4cc3ccc4O)C(O)c3ccc(c(Cl)c3)Oc3cc2cc(c3OC2OC(CO)C(O)C(O)C2OC2CC(C)(N)C(O)C(C)O2)Oc2ccc(cc2Cl)[C@@H]1O (some centres unmarked) [Compound 4, [Ψ[CH2NH] Tpg^4]vancomycin] | inhibits bacterial cell wall biosynthesis; also recorded: equally active |  |  | 31 | 31 |  |  |  | MIC ([7]; Enterococcus faecalis, VRE, read-out: Antimicrobial Activity, MIC, VanA E. faecalis): 31 µg/mL (≈ 21.6 µM); MIC ([8]; Enterococcus faecium, read-out: Antimicrobial Activity, MIC, VanA E. faecium): 31 µg/mL (≈ 21.6 µM); MIC ([9]; Enterococcus, read-out: MIC against VanA VRE): 31 µg/mL (≈ 21.6 µM)
CN[C@H](CC(C)C)C(=O)N[C@H]1C(=O)N[C@@H](CC(N)=O)C(=O)N[C@H]2C(=N)N[C@@H]3C(=O)N[C@H](C(=O)N[C@H](C(=O)O)c4cc(O)cc(O)c4-c4cc3ccc4O)[C@H](O)c3ccc(c(Cl)c3)Oc3cc2cc(c3OC2OC(CO)C(O)[C@H](O)[C@@H]2O[C@H]2CC(C)(NCc3ccc(-c4ccc(Cl)cc4)cc3)[C@H](O)[C@H](C)O2)Oc2ccc(cc2Cl)[C@H]1O (some centres unmarked) [Compound 7] |  | 0.03 | 0.06 | 0.005 | 0.005 | 0.06 |  |  | 
CCCCCCCCCCCCCC[N+](C)(C)CCCNC(=O)[C@H]1NC(=O)[C@H]2NC(=O)[C@@H](NC[C@@H]3NC(=O)[C@H](CC(N)=O)NC(=O)[C@H](NC(=O)[C@@H](CC(C)C)NC)[C@H](O)c4ccc(c(Cl)c4)Oc4cc3cc(c4OC3OC(CO)C(O)[C@H](O)[C@@H]3O[C@H]3CC(C)(N)[C@H](O)[C@H](C)O3)Oc3ccc(cc3Cl)[C@H]2O)c2ccc(O)c(c2)-c2c(O)cc(O)cc21 (some centres unmarked) [Compound 13] | equally active |  |  |  |  |  |  |  | Antimicrobial Activity, MIC, VanA E. faecalis ([7]; BM 4166): 0.16 µg/mL; Antimicrobial Activity, MIC, VanA E. faecium ([8]; ATCC BAA-2317): 0.16 µg/mL; MIC against VanA VRE ([9]; both VanA VRE strains): 0.16 µg/mL; fold more potent than pocket analog 4 against VanA VRE ([9]; relative to Compound 4): 200 fold; fold more potent than C14-vancomycin (12) against VanA VRE ([9]; relative to Compound 12): > 10 fold; fold more potent than vancomycin against VanA VRE ([9]; relative to vancomycin (1)): > 1000 fold; induced cell membrane permeability (propidium uptake) [10]: produced pronounced cell membrane permeability immediately upon addition
CC(=O)NC[C@H]1CN(c2ccc(N3CCOCC3)c(F)c2)C(=O)O1 [linezolid] |  |  |  |  |  |  | insensitive | arises much faster and is much more pronounced; also recorded: arise much faster and was more pronounced | 
CN(C)c1cc(NC(=O)CNC(C)(C)C)c(O)c2c1C[C@H]1C[C@H]3[C@H](N(C)C)C(O)=C(C(N)=O)C(=O)[C@@]3(O)C(O)=C1C2=O [tigecycline] |  |  |  |  |  |  | sensitive | arises much faster and is much more pronounced; also recorded: arise much faster and was more pronounced | 
